The source of these data is paper PMC7317212 (Chemmedchem, 2020).

The target in one assay is T1, mGAT2 (Mus musculus, UniProt P31651).
T1 construct: expressed in transfected cells; host or cells: HEK293
T1 sequence (P31651 1-614): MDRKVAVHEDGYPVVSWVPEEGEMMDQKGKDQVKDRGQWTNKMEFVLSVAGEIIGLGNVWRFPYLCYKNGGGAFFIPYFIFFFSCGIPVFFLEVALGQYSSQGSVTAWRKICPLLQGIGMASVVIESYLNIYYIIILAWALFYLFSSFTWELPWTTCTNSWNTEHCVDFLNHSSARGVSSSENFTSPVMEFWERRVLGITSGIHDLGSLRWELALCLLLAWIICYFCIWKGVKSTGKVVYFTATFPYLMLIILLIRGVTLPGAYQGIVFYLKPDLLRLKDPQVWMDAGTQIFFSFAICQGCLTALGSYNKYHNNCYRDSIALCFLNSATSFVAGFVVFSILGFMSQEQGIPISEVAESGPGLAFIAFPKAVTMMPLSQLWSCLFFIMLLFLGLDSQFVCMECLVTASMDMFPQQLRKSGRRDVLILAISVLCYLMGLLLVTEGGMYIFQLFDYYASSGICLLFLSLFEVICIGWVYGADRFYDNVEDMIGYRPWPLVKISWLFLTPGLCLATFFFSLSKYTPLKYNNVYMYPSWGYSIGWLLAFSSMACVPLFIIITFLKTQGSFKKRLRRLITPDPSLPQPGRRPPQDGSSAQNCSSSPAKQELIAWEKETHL
As to the kind of experiment: [^3H]GABA uptake assay, HEK293 cells expressing mGAT2. In kind it is cell-based. The note with it: HEK293; in presence of 100 μM compound. The protocol:
(§1) For compounds with pIC50 ([^3H]GABA uptake assay) or pK i (MS Binding Assays) values close to or above 5.0, these experiments were repeated twice and SEM have been calculated.
(§2) [^3H]GABA uptake assays: The [^3H]GABA uptake assays were performed according to Kragler et al.33 Cells were grown in 150 cm^2 plates to a confluence of 70–90 % up to passage 25. After detachment the cells were centrifuged 5 min at 500×g, washed for three times in phosphate buffered saline and, finally, resuspended in Krebs buffer (2.5 mM CaCl2, 1.2 mM MgSO4, 1.2 mM KH2PO4, 4.7 mM KCl, 11 mM glucose, 25 mM Tris, 119 mM NaCl, pH 7.2). The uptake assays were performed with aliquots of the resulting cell suspension (about 100000–200000 cells per well) in a total volume of 250 μl in 96 well 2.2 mL deep well plates. The cells were equilibrated for 25 min in Krebs buffer in the presence of the test compound at 37 °C in a gently shaking water bath. […] After addition of 25 μl of a solution containing [^3H]GABA (2.22 TBq/mmol, ARC, St Louis, MO, USA) and unlabeled GABA in Krebs (final concentration 8 nM [^3H]GABA and 32 nM unlabeled GABA for mGAT1, mGAT3, mGAT4 and 20 nM [^3H]GABA and 20 nM unlabeled GABA for mGAT2) the cells were incubated for further 4 min (mGAT1, mGAT3, mGAT4) or 10 minutes (mGAT2), respectively. The incubation was stopped by filtration through Sartorius MGC micro glass fiber filters pre‐soaked for 1 h in 0.9 % NaCl by means of a Brandell MWXR‐96TI cell harvester (Brandell, Gaithersburg, MD, USA) under reduced pressure. The filters were rinsed two times with cold 0.9 % NaCl and subsequently transferred to 96 well sample plates (Perkin Elmer LAS, Boston, MA, USA). After addition of 200 μl Rotiszint Eco Plus (Roth, Karlsruhe, Germany) per well the radioactivity was determined in a microbeta liquid scintillation counter (Perkin Elmer LAS, Boston, MA, USA). Non‐specific uptake was determined in presence of 10 mM GABA for mGAT1, mGAT3 and mGAT4 or 100 mM GABA for mGAT2, respectively. The results are expressed as means±S.E.M. of at least three separate experiments, each carried out in triplicate.

For assay [1], the target named is T2, mGAT1 (Mus musculus, UniProt P31648).
T2 construct: expressed in transfected cells; host or cells: HEK293
As to the kind of experiment: [^3H]GABA uptake assay, HEK293 cells expressing mGAT1. In kind it is cell-based. Particulars: HEK293; in presence of 100 μM compound. The procedure:
as §1, §2

For another assay, the target named is T3, mGAT3 (Mus musculus, UniProt P31649).
T3 construct: expressed in transfected cells; host or cells: HEK293
T3 sequence (P31649 1-602): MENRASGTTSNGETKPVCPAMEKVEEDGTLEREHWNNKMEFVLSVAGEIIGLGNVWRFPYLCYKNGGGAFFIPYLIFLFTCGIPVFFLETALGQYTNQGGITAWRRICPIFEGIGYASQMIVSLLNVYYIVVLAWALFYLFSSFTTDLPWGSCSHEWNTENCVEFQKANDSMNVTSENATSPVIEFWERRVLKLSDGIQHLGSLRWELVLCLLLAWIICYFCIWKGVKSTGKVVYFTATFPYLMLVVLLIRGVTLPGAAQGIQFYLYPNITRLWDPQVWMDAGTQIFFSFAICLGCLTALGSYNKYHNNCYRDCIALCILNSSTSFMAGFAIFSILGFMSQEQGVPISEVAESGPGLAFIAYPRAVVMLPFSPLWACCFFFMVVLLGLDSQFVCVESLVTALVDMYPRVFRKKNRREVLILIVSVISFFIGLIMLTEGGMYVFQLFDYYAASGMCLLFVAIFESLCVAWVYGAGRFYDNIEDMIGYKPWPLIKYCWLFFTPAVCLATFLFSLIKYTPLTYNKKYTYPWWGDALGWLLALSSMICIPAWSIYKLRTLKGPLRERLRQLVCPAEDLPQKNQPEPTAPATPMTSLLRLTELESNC
As to the kind of experiment: [^3H]GABA uptake assay, HEK293 cells expressing mGAT3. The assay is classed as cell-based. The note with it: HEK293; in presence of 100 μM compound. The procedure:
as §1, §2

A further assay has as its target T4, mGAT4 (Mus musculus, UniProt P31650).
T4 construct: expressed in transfected cells; host or cells: HEK293
T4 sequence (P31650 1-627): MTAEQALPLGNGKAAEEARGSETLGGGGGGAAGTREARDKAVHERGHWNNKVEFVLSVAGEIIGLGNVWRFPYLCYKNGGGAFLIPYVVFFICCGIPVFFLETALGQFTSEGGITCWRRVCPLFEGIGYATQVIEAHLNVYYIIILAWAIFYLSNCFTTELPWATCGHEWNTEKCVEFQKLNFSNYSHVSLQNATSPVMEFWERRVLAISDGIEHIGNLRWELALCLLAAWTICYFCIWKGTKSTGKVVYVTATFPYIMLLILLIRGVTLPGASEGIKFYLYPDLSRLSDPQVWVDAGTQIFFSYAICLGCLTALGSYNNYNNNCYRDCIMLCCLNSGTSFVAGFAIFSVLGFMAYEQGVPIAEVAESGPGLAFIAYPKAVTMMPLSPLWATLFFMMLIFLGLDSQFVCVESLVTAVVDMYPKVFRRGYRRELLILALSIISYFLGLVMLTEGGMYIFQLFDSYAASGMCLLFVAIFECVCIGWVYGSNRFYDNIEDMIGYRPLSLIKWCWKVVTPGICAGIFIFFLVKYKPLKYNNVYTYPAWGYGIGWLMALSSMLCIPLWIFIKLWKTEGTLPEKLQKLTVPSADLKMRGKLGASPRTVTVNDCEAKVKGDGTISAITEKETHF
Put plainly: [^3H]GABA uptake assay, HEK293 cells expressing mGAT4. The assay is classed as cell-based. Particulars: for remaining activity at 100 µM: HEK293, in presence of 100 μM compound; for IC50: [^3H]GABA uptake, pIC50±SEM. The protocol:
as §1, §2

Assay [2] addresses T2, mGAT1. As to the kind of experiment: MS Binding Assay with NO711 as native MS marker. Particulars: for remaining activity at 100 µM: in presence of 100 μM compound, read-out: remaining specific NO711 binding (mGAT1). The protocol:
as §1
MS Binding Assays: The MS Binding Assays were performed with mGAT1 membrane preparations obtained from a stably mGAT1 expressing HEK293 cell line and NO711 as unlabeled marker in competitive binding experiments as previously described in detail.34 In short, test compounds were investigated at 7 concentrations in presence of 10 nM NO 711 in competition experiments. Non specific binding was defined as binding remaining in the presence of 100 mM GABA. Incubation was terminated by transfer of 200 μL per well onto a 96‐well filter plate (Acroprep, glass fibre, 1.0 μm, 350 μL, Pall, Dreieich, Germany) with a 12 channel pipette. After rapid vacuum‐filtration the filters were washed with ice cold 0.9 % NaCl (5×150 μL) and dried at 50 °C for 60 min. Afterwards, the filters were eluted with 100 μL methanol containing [^2H10]NO711 (1.4 nM) as internal standard per well into a deep‐well plate by application of vacuum. This step was repeated twice resulting in a total elution volume of 300 μL. Finally, a volume of 130 μL ammonium formate buffer (10 mM, pH 7.0) was added per well and the generated samples analyzed by LC‐ESI‐MS/MS using a API 3200 as described in detail previously.40

`COCc1ccc(C(OCCN2CCCC(C(=O)O)C2)(c2ccc(COC)cc2)c2ccc(COC)cc2)cc1` (racemic) [5 i, rac‐ 1‐(2‐{Tris[4‐(methoxymethyl)phenyl]methoxy}ethyl)piperidine‐3‐carboxylic acid]: the remaining activity at 100 µM at mGAT2 is 72.6%; on mGAT1 [1], 90.7%; at mGAT3 it was 68.3%; at mGAT4, 76.1%; at mGAT1 [2], 92.7%.

`CCOC(=O)C1CCCN(CCOC(c2ccc(COC)cc2)(c2ccc(OC)cc2)c2ccc(OC)cc2)C1` (racemic) [12 f, rac‐ Ethyl 1‐(2‐{[4‐(methoxymethyl)phenyl]bis[4‐methoxyphenyl]‐methoxy}ethyl)piperidine‐3‐carboxylate]: the remaining activity at 100 µM on mGAT2 is 58.8%; at mGAT1 [1], 66.6%; at mGAT3 it was 56.9%; on mGAT4 it was 50.8%; on mGAT1 [2] it was 55.3%.

As to `COCc1ccc(C(OCCN2CCCC(C(=O)O)C2)(c2ccc(COC)cc2)c2ccc(OC)cc2)cc1` (racemic) [5 h, rac‐ 1‐(2‐{Bis[4‐(methoxymethyl)phenyl][4‐methoxyphenyl]methoxy}‐ethyl)piperidine‐3‐carboxylic acid], the remaining activity at 100 µM is 55.2% at mGAT2, 70.5% on mGAT1 [1], 52.2% at mGAT3 and 74.1% at mGAT1 [2]. Also, on mGAT4, the midpoint of inhibition, the IC50, lay at 17 µM.

On to `COc1ccc(C(O)(CCCN2CCCC(C(=O)O)C2)c2ccc(OC)cc2)cc1` (racemic) [5 l, rac ‐1‐[4‐Hydroxy‐4,4‐bis(4‐methoxyphenyl)butyl]piperidine‐3‐carboxylic acid], for which the remaining activity at 100 µM came out at 62.5% on mGAT2, 69.5% at mGAT1 [1], 80.7% on mGAT3 and 92% at mGAT4. Moreover, the Ki at mGAT1 [2] (MS Binding Assay, NO711 marker, pKi±SEM, read-out: pK i mGAT1 (converted)) was 32.4 µM.

On to `CCOC(=O)C1CCCN(CCOC(c2ccc(OC)cc2)(c2ccc(OC)cc2)c2ccc(S(=O)(=O)N(C)C)cc2)C1` (racemic) [12 c, rac‐ Ethyl 1‐(2‐{[4‐(N,N‐dimethylsulfamoyl)phenyl]bis[4‐methoxyphenyl]‐methoxy}ethyl)piperidine‐3‐carboxylate], for which the remaining activity at 100 µM on mGAT2 stood at 73.2%; on mGAT1 [1] it was 75.7%; on mGAT3, 95.9%; at mGAT4 it was 94.3%; at mGAT1 [2] it was 93.8%.

Consider `COc1ccc(C(OCCN2CCCC(C(=O)O)C2)(c2ccc(CNC3(C(=O)O)CC3)cc2)c2ccc(OC)cc2)cc1` (racemic) [5 p, rac‐ 1‐{2‐[(4‐{[(1‐Carboxycyclopropyl)amino]methyl}phenyl)bis(4‐methoxyphenyl)methoxy]ethyl}piperidine‐3‐carboxylic acid], for which the remaining activity at 100 µM turned out to be 76% at mGAT2, 78.2% at mGAT1 [1], 69.1% at mGAT3 and 58.8% at mGAT1 [2]. For the same compound, inhibition against mGAT4 was half-maximal at 13.2 µM (IC50).

Take `CCOC(=O)C1CCCN(CCOC(c2ccc(CNC(C)(C)C(=O)OCC)cc2)(c2ccc(OC)cc2)c2ccc(OC)cc2)C1` (racemic) [12 q, rac‐ Ethyl 1‐{2‐[(4‐{[(1‐ethoxy‐2‐methyl‐1‐oxopropan‐2‐yl)amino]methyl}‐phenyl)bis(4‐methoxyphenyl)methoxy]ethyl}piperidine‐3‐carboxylate]: the remaining activity at 100 µM is 67.4% at mGAT2; 66.9% at mGAT1 [1]; 49.3% on mGAT3; 57.4% at mGAT4; 90.9% at mGAT1 [2].

On to `CCOC(=O)C1CCCN(CCOC(c2ccc(CNc3ccc(C(=O)O)cc3)cc2)(c2ccc(OC)cc2)c2ccc(OC)cc2)C1` (racemic) [12 t, rac‐ 4‐{[4‐({2‐[3‐(Ethoxycarbonyl)piperidin‐1‐yl]ethoxy}bis{4‐methoxy‐phenyl}methyl)benzyl]amino}benzoic acid], for which the remaining activity at 100 µM on mGAT2 was 73.5%; at mGAT1 [1], 52.3%; on mGAT3, 49.7%; on mGAT4, 63.9%; at mGAT1 [2], 102%.

As a reminder, the IC50 is the concentration at which inhibition is half-maximal. A lower IC50 goes with greater potency.
